According to ChEMBL document CHEMBL1132360, “N-Substituted (2,3-dihydro-1,4-benzodioxin-2-yl)methylamine derivatives as D(2) antagonists/5-HT(1A) partial agonists with potential as atypical antipsychotic agents” (J Med Chem, 1999):

Target: 5-hydroxytryptamine receptor 3A (Rattus norvegicus) (UniProt P35563)
Test: The compound was tested for binding affinity against 5-hydroxytryptamine 3 receptor

5-hydroxytryptamine receptor 3A (Rattus norvegicus), sequence (P35563 whole entry, looked up): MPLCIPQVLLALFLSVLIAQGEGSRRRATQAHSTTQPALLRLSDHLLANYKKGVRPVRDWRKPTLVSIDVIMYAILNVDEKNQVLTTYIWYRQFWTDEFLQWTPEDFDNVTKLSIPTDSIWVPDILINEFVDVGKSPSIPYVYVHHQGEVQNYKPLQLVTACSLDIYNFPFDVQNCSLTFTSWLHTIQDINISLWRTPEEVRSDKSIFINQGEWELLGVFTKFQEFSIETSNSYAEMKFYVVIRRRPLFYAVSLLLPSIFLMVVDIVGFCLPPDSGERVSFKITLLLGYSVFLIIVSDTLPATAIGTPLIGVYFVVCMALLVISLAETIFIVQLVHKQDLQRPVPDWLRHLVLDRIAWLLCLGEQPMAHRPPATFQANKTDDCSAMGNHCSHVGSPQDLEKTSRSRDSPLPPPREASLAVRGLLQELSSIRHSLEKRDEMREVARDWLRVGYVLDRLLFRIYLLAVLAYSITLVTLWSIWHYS

Question: How did the Ki turn out when COc1ccccc1N1CCC(CNCC2COc3ccc(Cl)cc3O2)CC1 (stereo unspecified) was run?
Answer: > 1 µM
